Results reported in patent US20190110993A1, “Solid Nanoparticle Formulation of Water Insoluble Pharmaceutical Substances with Reduced Ostwald Ripening” (priority 2017, published 2019).
In brackets after ≈: the same amount, converted by molar mass. Where two headings read alike, the source gives them in different places.

Assays:
[1] = system: PANC-1 human pancreatic tumor xenografts; experiment: PANC-1 xenograft model; type: in vivo, athymic nude mice; conditions: PANC-1, 28 mg/kg once every third day for three treatments
Protocol: The anti-tumor efficacy studies of LBI-1103 in the MDA-MB-468 xenograft model as compared to Taxotere® and in the PANC-1 xenograft model as compared to Taxotere® and Gemcytabine were completed recently. The controls and LBI-1103 were injected intravenously once every other day for three treatments except for PANC-1 xenograft animals, where they were treated with Gemcitabine once every third day for three treatments.
In the PANC-1 xenograft models treated with LBI-1103, Taxotere® and Gemcitabine, a significant reduction in tumor weight was observed after the first day of dosing and this trend continued till the end of the study (FIG. 19).

[2] = cited from earlier work
[3] = after irinotecan; cited from earlier work
[4] = system: topoisomerase I purified from human and rodent tumor cell lines; conditions: more potent than irinotecan; cited from earlier work
human plasma proteins = conditions: cited from earlier work
[5] = in blood; cited from earlier work
[6] = cited from earlier work; for solubility in the infusion solution: Jevtana infusion solution

Nc1ccn([C@@H]2O[C@H](CO)[C@@H](O)C2(F)F)c(=O)n1 [Gemcytabine, Gemcitabine]
tumor regression, mean tumor weight on last day of study compared to Day 1 [1]: 73%

C/C(=C\c1csc(C)n1)[C@@H]1C[C@@H]2O[C@]2(C)CCC[C@H](C)[C@H](O)[C@@H](C)C(=O)C(C)(C)[C@@H](O)CC(=O)N1 [Ixabepilone]
solubility in water [2]: about 3.5 mg/L

CCc1c2c(nc3ccc(O[C@@H]4O[C@H](C(=O)O)[C@@H](O)[C@H](O)[C@H]4O)cc13)-c1cc3c(c(=O)n1C2)COC(=O)[C@]3(O)CC [SN-38 glucuronide]
urinary excretion [3]: 3%

CCc1c2c(nc3ccc(O)cc13)-c1cc3c(c(=O)n1C2)COC(=O)[C@]3(O)CC [SN-38]
potency as inhibitor of topoisomerase I relative to irinotecan [4]: approximately 1000 times | plasma protein binding (bound) (human plasma proteins; SN-38: human plasma proteins, mainly albumin): approximately 95% | binding to plasma proteins (human plasma proteins; adults and pediatric patients, independent of serum albumin levels): 94-96% | urinary excretion [3]: < 1% | bound, mainly to albumin and lymphocytes, also erythrocytes and neutrophils [5]: at least 99%

CO[C@H]1C(=O)[C@]2(C)[C@@H](OC)C[C@H]3OC[C@@]3(OC(C)=O)[C@H]2[C@H](OC(=O)c2ccccc2)[C@]2(O)C[C@H](OC(=O)[C@H](O)[C@@H](NC(=O)OC(C)(C)C)c3ccccc3)C(C)=C1C2(C)C [cabazitaxel]
solubility in water [2]: about 8 mg/L | solubility in the infusion solution ([6]; 5° C.): 0.08 mg/mL (≈ 95.7 µM) | solubility in the infusion solution ([6]; 25° C.): 0.06 mg/mL (≈ 71.8 µM) | solubility in the premix ([6]; Jevtana premix solution (cabazitaxel concentration 10 mg/mL)): 3.44 mg/mL (≈ 4120 µM)

CC(=O)O[C@@]12CO[C@@H]1C[C@H](O)[C@@]1(C)C(=O)[C@H](O)C3=C(C)[C@@H](OC(=O)[C@H](O)[C@@H](NC(=O)OC(C)(C)C)c4ccccc4)C[C@@](O)([C@@H](OC(=O)c4ccccc4)[C@H]21)C3(C)C [docetaxel]
solubility in water [2]: about 14 mg/L

CCc1c2c(nc3ccc(OC(=O)N4CCC(N5CCCCC5)CC4)cc13)-c1cc3c(c(=O)n1C2)COC(=O)[C@]3(O)CC [irinotecan]
bound to and/or localized in erythrocytes [5]: 80%

CC(=O)O[C@H]1C(=O)[C@@]2(C)[C@H]([C@H](OC(=O)c3ccccc3)[C@]3(O)C[C@H](OC(=O)[C@H](O)[C@@H](NC(=O)c4ccccc4)c4ccccc4)C(C)=C1C3(C)C)[C@]1(OC(C)=O)CO[C@@H]1C[C@@H]2O [paclitaxel]
solubility in water [2]: about 0.4 mg/L
